Measurements published in publication PMC5702617, “Novel peptide probes to assess the tensional state of fibronectin fibers in cancer” (Nature Communications, 2017).
Where “and” joins values, the source holds several entries; their conditions need not be identical. Identical values can stand only once. Residues, ends and D or L forms follow the SMILES beside them. No end group written: not given here. *: point of attachment. X1 = O=C(O)CN1CCN(CC(=O)O)CCN(C(CCC(=O)NCCN2C(=O)CC(*)C2=O)C(=O)O)CC1

How the values were obtained:
[1] = In vitro plasma stability; type: in vitro ADME, human; conditions: 37°C, 1 hour time point, RP-HPLC, means from three experiments
Method: The stability of peptides in blood is often limited as they are rapidly cleaved by catalytic enzymes found in tissue and blood, resulting in a short biological half-life. […] To verify whether the FnBPA5 peptide can be used for in vivo applications, we next performed a plasma stability test. The metabolic stability of the peptide radiotracer ^111In-FnBPA5 was tested in vitro by incubating the radiolabeled FnBPA5 at 37°C with human blood plasma, or water as control. The unbound peptide fraction was separated from the plasma proteins at different time points (0, 1, 24, 48, and 72 h) and was analyzed by reversed-phase high-pressure liquid chromatography (RP-HPLC).
After that, the samples were filtrated using a Thomson Single StEP Filter vial 0.45 μm PVDF (Thomson Instrument Company, Oceanside, USA) and the supernatant was analyzed by reversed-phase HPLC (Varian Prostar HPLC System, SpectraLab Scientific Inc., Canada) using a D-Bio Discovery Wide Pore C18 column (25 cm × 4.6 mm; 5 μm).

[2] = Biodistribution in PC-3 tumor grafted mice; type: in vivo, mouse; conditions: female, CD1 nude, mouse, in vivo, iv, total radioactivity; 1 h p.i.; PC-3 grafted mice, i.v. 150 kBq (2.4 nmol, 100 µL PBS), γ counter, mean ± SD, n = 4; read-out: Biodistribution, Kidneys
Method: (§1) Experiments were performed 3–4 weeks after inoculation.
(§2) For the biodistribution experiments, PC-3 tumor grafted mice were injected into the tail vein with 150 kBq ^111In-FnBPA5 or ^111In-scrambled FnBPA5 (2.4 nmol, 100 µL PBS). For each peptide, groups of four mice were sacrificed at 1, 4, 24, and 96 h post injection. Blocking experiment (n = 4) was performed by injection of an excess of peptide (100 µg, 24 nmol in 100 µL PBS) directly before the administration of the corresponding radiolabeled peptide. The organs were collected, weighed and counted for activity with a γ counter (Packard Cobra II Auto, Gamma, PerkinElmer AG, Schwerzenbach, Switzerland) 4 h p.i. The results were expressed as a percentage of injected activity per gram of tissue (% IA per g tissue). The Student's t test analyses were considered as type 3 (two sample unequal variance) and statistical significance was assumed for p-values smaller than 0.05.

[3] = system: PC-3-bearing mice; experiment: Biodistribution in PC-3 tumor grafted mice; type: in vivo, mouse; conditions: PC-3 grafted mice, i.v. 150 kBq (2.4 nmol, 100 µL PBS), γ counter, mean ± SD, n = 4
Method: as §1, §2

[4] = system: PC-3-bearing mice; experiment: In vivo blocking experiment in PC-3 tumor grafted mice; set-up: species or system mouse; conditions: n = 4
Method: as §2

[5] = system: PC-3-bearing mice; experiment: SPECT/CT imaging of PC-3-bearing mice; type: in vivo, mouse
Method: Thirty-three days from the inoculation of the tumor cells, the mice were intravenously injected with ~15 MBq ^111In-FnBPA5 resp. ^111In-scrambled FnBPA5-NODAGA (2.4 nmol, 100 µL PBS) into the tail vein. […] The images were reconstituted and processed with InVivoScope® software (Bioscan Inc., Washington DC, USA).

[6] = biological target: fibronectin N-terminal fragments (Homo sapiens) (UniProt P02751); conditions: cited from earlier work
[7] = biological target: Fn fibers in PC-3 xenograft tumor tissue of CD1 nude mice (not stated (human PC-3 xenograft in CD1 nude mouse)) (UniProt P11276)
[8] = biological target: Fn fibers in PC-3 xenograft tumor tissue of CD1 nude mice (not stated (human PC-3 xenograft in CD1 nude mouse)) (UniProt P11276); remark: listed apart in the source
[9] = biological target: T1, fibronectin isolated from human plasma (human, UniProt P02751 32-2477, in the fibers 5% of the protein was Cy5-labeled (Cy5-maleimide on the cryptic cysteines at FnIII7 and FnIII15)); experiment: fluorescence polarisation; anisotropy titration; 100 nM Alexa-488 labeled peptide in PBS, Fn titrated from 0 to 1.4 μM, 20 °C; one-site-binding model; three independent measurements; conditions: both partners purified
[10] = biological target: T1, fibronectin isolated from human plasma; experiment: single Fn fiber binding assay (confocal microscopy, intensity ratio peptide-Alexa488 / Fn-Cy5); Fn fibers (95% unlabeled, 5% Cy5-labeled) manually pulled onto a silicone sheet and relaxed to about 7% strain; blocked with BSA; varying concentrations of peptide for 1 h, washed, imaged; ratio at 10 μM set to 1; conditions: both partners purified
[11] = 4h p.i. blocking: corresponding unlabeled peptide (24 nmol) i.v. directly before the radiolabeled peptide, PC-3 grafted mice, mean ± SD

Chain of Fn fibers in PC-3 xenograft tumor tissue of CD1 nude mice (not stated (human PC-3 xenograft in CD1 nude mouse)) (P11276 33-2477): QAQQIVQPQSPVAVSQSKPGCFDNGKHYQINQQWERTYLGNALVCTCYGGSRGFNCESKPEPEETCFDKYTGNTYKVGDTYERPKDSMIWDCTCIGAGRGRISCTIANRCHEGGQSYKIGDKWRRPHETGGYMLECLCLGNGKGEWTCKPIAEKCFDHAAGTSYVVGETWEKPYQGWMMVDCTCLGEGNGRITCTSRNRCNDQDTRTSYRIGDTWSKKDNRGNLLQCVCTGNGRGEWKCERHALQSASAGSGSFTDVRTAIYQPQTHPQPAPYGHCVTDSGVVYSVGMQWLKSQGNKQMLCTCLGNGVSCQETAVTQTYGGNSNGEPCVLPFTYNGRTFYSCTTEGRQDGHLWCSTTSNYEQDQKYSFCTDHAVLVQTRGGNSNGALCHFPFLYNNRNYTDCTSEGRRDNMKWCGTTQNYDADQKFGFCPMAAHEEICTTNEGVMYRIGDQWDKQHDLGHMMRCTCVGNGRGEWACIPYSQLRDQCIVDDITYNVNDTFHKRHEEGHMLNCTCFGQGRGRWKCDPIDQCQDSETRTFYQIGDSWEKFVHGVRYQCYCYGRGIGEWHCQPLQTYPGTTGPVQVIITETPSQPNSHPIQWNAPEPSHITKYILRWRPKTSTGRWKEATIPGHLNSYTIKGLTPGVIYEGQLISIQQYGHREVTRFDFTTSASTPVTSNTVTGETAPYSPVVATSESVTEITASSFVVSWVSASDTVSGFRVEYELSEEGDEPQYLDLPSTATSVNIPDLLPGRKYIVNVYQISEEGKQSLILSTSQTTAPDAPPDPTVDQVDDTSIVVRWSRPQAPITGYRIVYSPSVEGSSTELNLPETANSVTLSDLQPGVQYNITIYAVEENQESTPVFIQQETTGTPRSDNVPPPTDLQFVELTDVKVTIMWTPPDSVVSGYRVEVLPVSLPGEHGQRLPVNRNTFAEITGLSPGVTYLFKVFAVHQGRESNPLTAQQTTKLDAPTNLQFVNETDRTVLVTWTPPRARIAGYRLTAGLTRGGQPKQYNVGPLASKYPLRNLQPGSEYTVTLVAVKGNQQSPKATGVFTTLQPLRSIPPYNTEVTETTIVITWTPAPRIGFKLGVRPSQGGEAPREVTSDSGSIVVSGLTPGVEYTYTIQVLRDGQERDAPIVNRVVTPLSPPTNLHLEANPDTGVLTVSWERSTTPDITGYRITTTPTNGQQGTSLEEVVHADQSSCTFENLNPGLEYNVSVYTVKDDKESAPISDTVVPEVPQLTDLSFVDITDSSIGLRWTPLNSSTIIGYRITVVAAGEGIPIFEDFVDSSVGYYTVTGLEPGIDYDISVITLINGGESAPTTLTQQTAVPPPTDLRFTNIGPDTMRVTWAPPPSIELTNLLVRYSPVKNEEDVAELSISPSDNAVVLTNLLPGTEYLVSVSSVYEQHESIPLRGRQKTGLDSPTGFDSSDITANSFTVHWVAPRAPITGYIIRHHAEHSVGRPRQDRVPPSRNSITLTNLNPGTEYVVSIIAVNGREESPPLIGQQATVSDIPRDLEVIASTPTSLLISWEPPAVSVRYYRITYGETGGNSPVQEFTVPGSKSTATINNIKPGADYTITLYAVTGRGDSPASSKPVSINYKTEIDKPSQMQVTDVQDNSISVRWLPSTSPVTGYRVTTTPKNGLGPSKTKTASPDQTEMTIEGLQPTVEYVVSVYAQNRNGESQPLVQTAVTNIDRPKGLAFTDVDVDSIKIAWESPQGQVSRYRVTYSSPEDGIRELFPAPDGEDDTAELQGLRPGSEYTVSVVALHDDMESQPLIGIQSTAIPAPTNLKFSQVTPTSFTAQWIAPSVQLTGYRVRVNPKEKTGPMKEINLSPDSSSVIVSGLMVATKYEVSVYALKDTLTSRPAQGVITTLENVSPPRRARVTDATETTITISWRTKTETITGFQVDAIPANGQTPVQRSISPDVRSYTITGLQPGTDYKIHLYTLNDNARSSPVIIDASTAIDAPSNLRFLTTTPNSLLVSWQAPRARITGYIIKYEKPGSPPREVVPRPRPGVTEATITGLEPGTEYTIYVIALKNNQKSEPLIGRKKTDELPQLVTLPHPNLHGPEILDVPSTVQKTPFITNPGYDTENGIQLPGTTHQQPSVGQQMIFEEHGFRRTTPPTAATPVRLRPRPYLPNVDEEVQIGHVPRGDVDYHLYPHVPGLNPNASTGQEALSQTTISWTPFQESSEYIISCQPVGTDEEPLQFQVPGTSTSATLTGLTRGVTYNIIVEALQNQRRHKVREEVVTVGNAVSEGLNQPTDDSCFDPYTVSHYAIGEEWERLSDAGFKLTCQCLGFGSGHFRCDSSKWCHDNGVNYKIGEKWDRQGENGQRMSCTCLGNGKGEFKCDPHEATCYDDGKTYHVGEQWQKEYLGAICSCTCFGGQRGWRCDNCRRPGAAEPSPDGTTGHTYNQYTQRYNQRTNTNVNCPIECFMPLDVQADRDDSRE
Chain of fibronectin N-terminal fragments (Homo sapiens) (P02751 50-273): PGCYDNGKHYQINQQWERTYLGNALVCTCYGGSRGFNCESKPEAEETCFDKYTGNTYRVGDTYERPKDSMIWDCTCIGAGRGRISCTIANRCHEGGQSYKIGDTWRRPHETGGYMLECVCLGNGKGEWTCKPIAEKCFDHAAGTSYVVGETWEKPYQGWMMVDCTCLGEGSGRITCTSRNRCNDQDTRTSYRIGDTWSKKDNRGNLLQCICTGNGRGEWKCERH

CC[C@H](C)[C@H](NC(=O)[C@@H](NC(=O)[C@H](CCC(=O)O)NC(=O)CNC(=O)[C@H](Cc1ccccc1)NC(=O)[C@H](CC(=O)O)NC(=O)[C@@H](NC(=O)[C@H](CCCCN)NC(=O)[C@@H](NC(=O)CNC(=O)[C@@H](NC(=O)[C@H](CC(C)C)NC(=O)[C@H](CC(=O)O)NC(=O)[C@H](CCC(=O)O)NC(=O)[C@H](CCC(N)=O)NC(=O)[C@H](CCC(=O)O)NC(=O)[C@H](CO)NC(=O)CNC(=O)[C@@H](N)CSC1CC(=O)N(CCNC(=O)CCC(C(=O)O)N2CCN(CC(=O)O)CCN(CC(=O)O)CC2)C1=O)[C@@H](C)O)[C@@H](C)O)C(C)C)[C@@H](C)O)C(=O)N[C@H](C(=O)N[C@H](C(=O)N[C@@H](CC(N)=O)C(=O)N[C@@H](CCC(=O)O)C(=O)N[C@@H](C)C(=O)N[C@H](C(=O)N[C@@H](CCC(=O)O)C(=O)N[C@H](C(=O)N[C@H](C(=O)N[C@H](C(=O)N[C@@H](CO)C(=O)NCC(=O)N[C@@H](CO)C(=O)N[C@H](C(=O)N[C@@H](Cc1c[nH]cn1)C(=O)NCC(=O)N[C@H](C(=O)N[C@@H](CCCCN)C(=O)N[C@H](C(=O)O)C(C)C)[C@@H](C)O)[C@@H](C)O)[C@@H](C)O)C(C)C)[C@@H](C)O)[C@@H](C)O)C(C)C)C(C)C (stereo partly drawn) [111In-scrambled FnBPA5, metal not drawn] (H-C(X1)GSEQEDLTGTKVDFGETIVVNEATETVTSGSTHGTKV-OH; N-terminus and C-terminus assumed)
stability in human blood plasma [1]: high stability | tissue uptake at 1 h [2]: 163 ± 18 %ID/g | Biodistribution, Blood ([3]; 1 h p.i.): 0.26 ± 0.064 IA% / g | Biodistribution, Bone ([3]; 1 h p.i.): 0.15 ± 0.035 IA% / g | Biodistribution, Heart ([3]; 1 h p.i.): 0.12 ± 0.03 IA% / g | Biodistribution, Intestines ([3]; 1 h p.i.): 0.09 ± 0.01 IA% / g | Biodistribution, Kidneys ([3]; 1 h p.i.): 163.70 ± 18.90 IA% / g | Biodistribution, Liver ([3]; 1 h p.i.): 0.10 ± 0.02 IA% / g | Biodistribution, Lung ([3]; 1 h p.i.): 0.19 ± 0.03 IA% / g | Biodistribution, Muscle ([3]; 1 h p.i.): 0.09 ± 0.025 IA% / g | Biodistribution, Pancreas ([3]; 1 h p.i.): 0.78 ± 0.295 IA% / g | Biodistribution, Spleen ([3]; 1 h p.i.): 0.21 ± 0.039 IA% / g | Biodistribution, Stomach ([3]; 1 h p.i.): 0.12 ± 0.013 IA% / g | Biodistribution, Tumor ([3]; 1 h p.i.): 0.27 ± 0.08 IA% / g | Biodistribution, Blood ([3]; 4 h p.i.): 0.07 ± 0.008 IA% / g and 0.07 ± 0.01 IA% / g | Biodistribution, Bone ([3]; 4 h p.i.): 0.10 ± 0.01 IA% / g | Biodistribution, Heart ([3]; 4 h p.i.): 0.06 ± 0.006 IA% / g | Biodistribution, Intestines ([3]; 4 h p.i.): 0.04 ± 0.012 IA% / g and 0.04 ± 0.01 IA% / g | Biodistribution, Kidneys ([3]; 4 h p.i.): 151.43 ± 9.056 IA% / g and 151.43 ± 9.06 IA% / g | Biodistribution, Liver ([3]; 4 h p.i.): 0.08 ± 0.026 IA% / g and 0.08 ± 0.03 IA% / g | Biodistribution, Lung ([3]; 4 h p.i.): 0.08 ± 0.005 IA% / g and 0.08 ± 0.01 IA% / g | Biodistribution, Muscle ([3]; 4 h p.i.): 0.04 ± 0.019 IA% / g and 0.04 ± 0.02 IA% / g | Biodistribution, Pancreas ([3]; 4 h p.i.): 0.64 ± 0.549 IA% / g and 0.64 ± 0.55 IA% / g | Biodistribution, Spleen ([3]; 4 h p.i.): 0.13 ± 0.036 IA% / g and 0.13 ± 0.03 IA% / g | Biodistribution, Stomach ([3]; 4 h p.i.): 0.06 ± 0.006 IA% / g | Biodistribution, Tumor ([3]; 4 h p.i.): 0.14 ± 0.02 IA% / g | Biodistribution, Blood ([3]; 24 h p.i.): 0.04 ± 0.005 IA% / g | Biodistribution, Bone ([3]; 24 h p.i.): 0.09 ± 0.021 IA% / g | Biodistribution, Heart ([3]; 24 h p.i.): 0.04 ± 0.005 IA% / g | Biodistribution, Intestines ([3]; 24 h p.i.): 0.03 ± 0.00 IA% / g | Biodistribution, Kidneys ([3]; 24 h p.i.): 104.62 ± 9.412 IA% / g | Biodistribution, Liver ([3]; 24 h p.i.): 0.07 ± 0.010 IA% / g | Biodistribution, Lung ([3]; 24 h p.i.): 0.05 ± 0.006 IA% / g | Biodistribution, Muscle ([3]; 24 h p.i.): 0.08 ± 0.026 IA% / g | Biodistribution, Pancreas ([3]; 24 h p.i.): 0.21 ± 0.162 IA% / g | Biodistribution, Spleen ([3]; 24 h p.i.): 0.14 ± 0.048 IA% / g | Biodistribution, Stomach ([3]; 24 h p.i.): 0.04 ± 0.017 IA% / g | Biodistribution, Tumor ([3]; 24 h p.i.): 0.09 ± 0.01 IA% / g | Biodistribution, Blood ([3]; 96 h p.i.): 0.02 ± 0.005 IA% / g | Biodistribution, Bone ([3]; 96 h p.i.): 0.13 ± 0.036 IA% / g | Biodistribution, Heart ([3]; 96 h p.i.): 0.04 ± 0.005 IA% / g | Biodistribution, Intestines ([3]; 96 h p.i.): 0.02 ± 0.010 IA% / g | Biodistribution, Kidneys ([3]; 96 h p.i.): 23.63 ± 9.883 IA% / g | Biodistribution, Liver ([3]; 96 h p.i.): 0.05 ± 0.005 IA% / g | Biodistribution, Lung ([3]; 96 h p.i.): 0.04 ± 0.014 IA% / g | Biodistribution, Muscle ([3]; 96 h p.i.): 0.04 ± 0.013 IA% / g | Biodistribution, Pancreas ([3]; 96 h p.i.): 0.06 ± 0.016 IA% / g | Biodistribution, Spleen ([3]; 96 h p.i.): 0.10 ± 0.029 IA% / g | Biodistribution, Stomach ([3]; 96 h p.i.): 0.04 ± 0.029 IA% / g | Biodistribution, Tumor ([3]; 96 h p.i.): 0.16 ± 0.08 IA% / g | effect of pre-injection of unlabeled peptide on accumulation ([4]; 24 nmol unlabeled peptide pre-injected, 4 h p.i., Student's t test): no significant differences | Biodistribution with blocking, Blood [4, 11]: 0.07 ± 0.01 IA% / g | Biodistribution with blocking, Intestines [4, 11]: 0.07 ± 0.05 IA% / g | Biodistribution with blocking, Kidneys [4, 11]: 128.81 ± 17.44 IA% / g | Biodistribution with blocking, Liver [4, 11]: 0.08 ± 0.01 IA% / g | Biodistribution with blocking, Lung [4, 11]: 0.10 ±0.03 IA% / g | Biodistribution with blocking, Muscle [4, 11]: 0.04 ± 0.00 IA% / g | Biodistribution with blocking, Pancreas [4, 11]: 1.41 ±1.25 IA% / g | Biodistribution with blocking, Spleen [4, 11]: 0.18 ± 0.03 IA% / g | Biodistribution with blocking, Stomach [4, 11]: 0.08 ± 0.04 IA% / g | Biodistribution with blocking, Tumor [4, 11]: 0.14 ± 0.04 IA% / g | SPECT/CT distribution ([5]; ~15 MBq (2.4 nmol, 100 µL PBS) i.v., up to 96 h p.i.): mainly accumulated in the kidneys | SPECT/CT distribution after kidney removal ([5]; ~15 MBq i.v., 96 h p.i., post mortem, kidneys removed): no uptake was visible

FnBPA5 (from UniProt P14738)
Kd [6]: 44.2 nM

^natIn-FnBPA5 (cold labeled) / ^111In-FnBPA5 (peptide)
tumor uptake of ^111In-FnBPA5 in PC-3-bearing mice, biodistribution at 1, 4, 24 and 96 h p.i. (maximum at 1 h p.i.) [7]: 4.74 % IA per g | change of ^111In-FnBPA5 uptake in the liver 4 h p.i. after pre-injection of a 10-fold excess of unlabeled FnBPA5 (24 nmol) [8]: -58.2% | change of ^111In-FnBPA5 uptake in the tumor 4 h p.i. after pre-injection of a 10-fold excess of unlabeled FnBPA5 (24 nmol) [8]: -35.6%

B1: FnBPA5-Alexa488 (peptide)
chain: {C(Alexa488)}-GQVTTESNLVEFDEESTKGIVTGAVSDHTTVEDTK
Kd [9]: 75 nM | Kd [10]: 28 nM
